Measured values: ChEMBL document CHEMBL4507306, “Data for DCP probe KISS1-305” (2021)
Calls of active or inactive are those of the source. The calls are words filed in the database; no cut-off is given here. Square brackets hold non-standard residues; d marks the D form. Peptide text beside a SMILES is read from it. Arg(Me) = CNC(=N)NCCC[C@H](N)C(=O)O; d3Pal = N[C@H](Cc1cccnc1)C(=O)O; d4Pal = N[C@H](Cc1ccncc1)C(=O)O; azaGly = NNC(=O)O

Assays:
[1] = molecular target: 5-hydroxytryptamine receptor 1B (Homo sapiens) (UniProt P28222); conditions: Compound concentration 1.0 uM
[2] = molecular target: Muscarinic acetylcholine receptor M4 (Homo sapiens) (UniProt P08173); conditions: Compound concentration 1.0 uM
[3] = molecular target: Mu-type opioid receptor (Homo sapiens) (UniProt P35372); conditions: Compound concentration 1.0 uM
[4] = molecular target: Beta-2 adrenergic receptor (Homo sapiens) (UniProt P07550); conditions: Compound concentration 1.0 uM
[5] = molecular target: Sigma non-opioid intracellular receptor 1 (Homo sapiens) (UniProt Q99720); conditions: Compound concentration 1.0 uM
[6] = molecular target: Beta-1 adrenergic receptor (Homo sapiens) (UniProt P08588); conditions: Compound concentration 1.0 uM
[7] = molecular target: Histamine H1 receptor (Homo sapiens) (UniProt P35367); conditions: Compound concentration 1.0 uM
[8] = molecular target: Sodium-dependent serotonin transporter (Homo sapiens) (UniProt P31645); conditions: Compound concentration 1.0 uM
[9] = molecular target: 5-hydroxytryptamine receptor 6 (Homo sapiens) (UniProt P50406); conditions: Compound concentration 1.0 uM
[10] = molecular target: 5-hydroxytryptamine receptor 1D (Homo sapiens) (UniProt P28221); conditions: Compound concentration 1.0 uM
[11] = molecular target: 5-hydroxytryptamine receptor 1E (Homo sapiens) (UniProt P28566); conditions: Compound concentration 1.0 uM
[12] = molecular target: Sodium-dependent noradrenaline transporter (Homo sapiens) (UniProt P23975); conditions: Compound concentration 1.0 uM
[13] = molecular target: Alpha-1A adrenergic receptor (Homo sapiens) (UniProt P35348); conditions: Compound concentration 1.0 uM
[14] = molecular target: Sigma intracellular receptor 2 (Homo sapiens) (UniProt Q5BJF2); conditions: Compound concentration 1.0 uM
[15] = molecular target: Beta-3 adrenergic receptor (Homo sapiens) (UniProt P13945); conditions: Compound concentration 1.0 uM
[16] = molecular target: D(3) dopamine receptor (Homo sapiens) (UniProt P35462); conditions: Compound concentration 1.0 uM
Rattus norvegicus = species: Rattus norvegicus; conditions: Compound concentration 1.0 uM
[17] = molecular target: T1, GABA-A receptor; anion channel (Rattus norvegicus) (UniProt O09028+P15431+P18506+P18508+P19969+P20236+P23574+P23576+P28471+P28473+P30191+P62813+P63079+P63138+Q91ZM7+Q9ES14); conditions: Compound concentration 1.0 uM
[18] = Cellular activity assay: GPR54 expressing cell growth
[19] = molecular target: D(1B) dopamine receptor (Homo sapiens) (UniProt P21918); conditions: Compound concentration 1.0 uM
[20] = molecular target: Sodium-dependent dopamine transporter (Homo sapiens) (UniProt Q01959); conditions: Compound concentration 1.0 uM
[21] = molecular target: Histamine H3 receptor (Homo sapiens) (UniProt Q9Y5N1); conditions: Compound concentration 1.0 uM
[22] = molecular target: Histamine H4 receptor (Homo sapiens) (UniProt Q9H3N8); conditions: Compound concentration 1.0 uM
[23] = molecular target: Alpha-1B adrenergic receptor (Homo sapiens) (UniProt P35368); conditions: Compound concentration 1.0 uM
[24] = molecular target: Muscarinic acetylcholine receptor M5 (Homo sapiens) (UniProt P08912); conditions: Compound concentration 1.0 uM
[25] = molecular target: Muscarinic acetylcholine receptor M2 (Homo sapiens) (UniProt P08172); conditions: Compound concentration 1.0 uM
[26] = molecular target: Alpha-2B adrenergic receptor (Homo sapiens) (UniProt P18089); conditions: Compound concentration 1.0 uM
[27] = molecular target: Alpha-1D adrenergic receptor (Homo sapiens) (UniProt P25100); conditions: Compound concentration 1.0 uM
[28] = molecular target: Muscarinic acetylcholine receptor M3 (Homo sapiens) (UniProt P20309); conditions: Compound concentration 1.0 uM
[29] = molecular target: Muscarinic acetylcholine receptor M1 (Homo sapiens) (UniProt P11229); conditions: Compound concentration 1.0 uM
[30] = molecular target: D(1A) dopamine receptor (Homo sapiens) (UniProt P21728); conditions: Compound concentration 1.0 uM
[31] = molecular target: 5-hydroxytryptamine receptor 2B (Homo sapiens) (UniProt P41595); conditions: Compound concentration 1.0 uM
[32] = molecular target: Kappa-type opioid receptor (Homo sapiens) (UniProt P41145); conditions: Compound concentration 1.0 uM
[33] = molecular target: Alpha-2C adrenergic receptor (Homo sapiens) (UniProt P18825); conditions: Compound concentration 1.0 uM
[34] = molecular target: Alpha-2A adrenergic receptor (Homo sapiens) (UniProt P08913); conditions: Compound concentration 1.0 uM
[35] = molecular target: 5-hydroxytryptamine receptor 7 (Homo sapiens) (UniProt P34969); conditions: Compound concentration 1.0 uM
[36] = molecular target: 5-hydroxytryptamine receptor 5A (Homo sapiens) (UniProt P47898); conditions: Compound concentration 1.0 uM
[37] = molecular target: Histamine H2 receptor (Homo sapiens) (UniProt P25021); conditions: Compound concentration 1.0 uM
[38] = molecular target: D(2) dopamine receptor (Homo sapiens) (UniProt P14416); conditions: Compound concentration 1.0 uM
[39] = molecular target: 5-hydroxytryptamine receptor 1A (Homo sapiens) (UniProt P08908); conditions: Compound concentration 1.0 uM
[40] = molecular target: T1, GABA-A receptor; anion channel (Rattus norvegicus); conditions: Compound concentration 1.0 uM; remark: listed apart in the source
[41] = molecular target: 5-hydroxytryptamine receptor 2C (Homo sapiens) (UniProt P28335); conditions: Compound concentration 1.0 uM
[42] = molecular target: Delta-type opioid receptor (Homo sapiens, UniProt P41143); assay: GPCRScan assay: inhibition of DOR; parameters: radioligand conc. used [nm] 1.0 – 2.0, parental cells stable HEK
[43] = molecular target: 5-hydroxytryptamine receptor 3A (Homo sapiens) (UniProt P46098); conditions: Compound concentration 1.0 uM
[44] = molecular target: 5-hydroxytryptamine receptor 2A (Homo sapiens) (UniProt P28223); conditions: Compound concentration 1.0 uM
KiSS-1 receptor = KiSS-1 receptor (Homo sapiens, UniProt Q969F8); assay: Agonist activity for hGPR54 (C-terminal ethyl amide)
[45] = molecular target: D(4) dopamine receptor (Homo sapiens) (UniProt P21917); conditions: Compound concentration 1.0 uM

Chain of Mu-type opioid receptor (Homo sapiens) (P35372 whole entry): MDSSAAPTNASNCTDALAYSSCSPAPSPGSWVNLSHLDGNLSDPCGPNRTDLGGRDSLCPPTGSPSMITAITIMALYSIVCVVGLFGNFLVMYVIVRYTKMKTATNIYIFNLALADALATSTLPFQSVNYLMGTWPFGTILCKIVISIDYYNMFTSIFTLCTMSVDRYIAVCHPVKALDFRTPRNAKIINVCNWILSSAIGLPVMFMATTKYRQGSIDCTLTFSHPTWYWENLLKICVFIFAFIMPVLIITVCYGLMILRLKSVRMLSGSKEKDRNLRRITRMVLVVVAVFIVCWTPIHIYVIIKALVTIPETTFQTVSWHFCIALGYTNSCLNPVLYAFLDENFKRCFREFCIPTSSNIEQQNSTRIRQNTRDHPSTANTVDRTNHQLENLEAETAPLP
Chain of 5-hydroxytryptamine receptor 2C (Homo sapiens) (P28335 whole entry): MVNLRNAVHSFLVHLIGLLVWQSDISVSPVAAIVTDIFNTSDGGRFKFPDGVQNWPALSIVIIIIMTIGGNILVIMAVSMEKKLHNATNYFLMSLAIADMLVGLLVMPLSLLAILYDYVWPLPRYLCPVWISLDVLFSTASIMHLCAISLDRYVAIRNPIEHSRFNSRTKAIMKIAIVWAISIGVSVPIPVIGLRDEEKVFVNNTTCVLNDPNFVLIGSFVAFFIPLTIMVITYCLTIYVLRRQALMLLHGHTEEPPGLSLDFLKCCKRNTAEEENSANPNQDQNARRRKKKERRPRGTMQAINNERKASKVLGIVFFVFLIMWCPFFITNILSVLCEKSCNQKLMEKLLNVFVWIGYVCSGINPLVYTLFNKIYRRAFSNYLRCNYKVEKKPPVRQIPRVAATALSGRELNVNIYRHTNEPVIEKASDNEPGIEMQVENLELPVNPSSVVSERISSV
Chain of Muscarinic acetylcholine receptor M4 (Homo sapiens) (P08173 whole entry): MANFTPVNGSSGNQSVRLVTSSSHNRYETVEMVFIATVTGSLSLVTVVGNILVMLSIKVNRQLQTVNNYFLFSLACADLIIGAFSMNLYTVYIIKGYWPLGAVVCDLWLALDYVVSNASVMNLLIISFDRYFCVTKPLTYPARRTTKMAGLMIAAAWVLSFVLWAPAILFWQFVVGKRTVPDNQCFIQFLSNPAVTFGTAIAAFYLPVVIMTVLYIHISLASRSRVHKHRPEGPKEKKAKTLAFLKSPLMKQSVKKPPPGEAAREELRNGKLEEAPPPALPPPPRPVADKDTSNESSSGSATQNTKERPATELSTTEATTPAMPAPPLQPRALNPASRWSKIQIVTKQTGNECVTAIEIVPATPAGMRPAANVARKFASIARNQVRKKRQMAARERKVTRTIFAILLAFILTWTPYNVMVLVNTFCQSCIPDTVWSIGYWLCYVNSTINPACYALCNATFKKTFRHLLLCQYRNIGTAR
Chain of Muscarinic acetylcholine receptor M3 (Homo sapiens) (P20309 whole entry, looked up): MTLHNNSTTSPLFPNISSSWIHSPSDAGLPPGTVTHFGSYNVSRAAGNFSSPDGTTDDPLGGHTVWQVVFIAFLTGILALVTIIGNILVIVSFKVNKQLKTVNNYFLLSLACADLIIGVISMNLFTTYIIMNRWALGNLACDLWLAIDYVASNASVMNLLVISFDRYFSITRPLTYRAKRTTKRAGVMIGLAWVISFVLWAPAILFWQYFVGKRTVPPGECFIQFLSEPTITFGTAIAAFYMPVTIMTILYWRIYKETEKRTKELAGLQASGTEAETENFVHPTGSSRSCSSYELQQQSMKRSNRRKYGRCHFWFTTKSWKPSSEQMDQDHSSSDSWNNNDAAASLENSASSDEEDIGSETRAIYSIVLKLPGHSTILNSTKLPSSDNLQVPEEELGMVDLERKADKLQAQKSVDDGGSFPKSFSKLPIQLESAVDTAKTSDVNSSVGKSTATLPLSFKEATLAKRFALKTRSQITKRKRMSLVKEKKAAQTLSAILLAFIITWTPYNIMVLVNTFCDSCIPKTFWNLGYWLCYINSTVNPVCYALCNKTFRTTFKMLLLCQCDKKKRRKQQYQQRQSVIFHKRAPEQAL
Chain of 5-hydroxytryptamine receptor 6 (Homo sapiens) (P50406 whole entry): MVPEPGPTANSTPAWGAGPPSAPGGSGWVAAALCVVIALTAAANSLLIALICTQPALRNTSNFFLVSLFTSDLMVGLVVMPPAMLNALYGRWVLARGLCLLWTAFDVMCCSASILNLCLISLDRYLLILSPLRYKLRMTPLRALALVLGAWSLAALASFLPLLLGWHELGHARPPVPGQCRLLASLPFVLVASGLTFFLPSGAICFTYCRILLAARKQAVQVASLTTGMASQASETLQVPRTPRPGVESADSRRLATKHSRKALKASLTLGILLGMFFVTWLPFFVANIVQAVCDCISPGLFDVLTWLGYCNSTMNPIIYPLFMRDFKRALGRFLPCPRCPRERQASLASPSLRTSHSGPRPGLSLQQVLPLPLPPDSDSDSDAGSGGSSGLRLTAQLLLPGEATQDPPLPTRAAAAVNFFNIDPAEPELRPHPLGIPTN
Chain of 5-hydroxytryptamine receptor 1E (Homo sapiens) (P28566 whole entry): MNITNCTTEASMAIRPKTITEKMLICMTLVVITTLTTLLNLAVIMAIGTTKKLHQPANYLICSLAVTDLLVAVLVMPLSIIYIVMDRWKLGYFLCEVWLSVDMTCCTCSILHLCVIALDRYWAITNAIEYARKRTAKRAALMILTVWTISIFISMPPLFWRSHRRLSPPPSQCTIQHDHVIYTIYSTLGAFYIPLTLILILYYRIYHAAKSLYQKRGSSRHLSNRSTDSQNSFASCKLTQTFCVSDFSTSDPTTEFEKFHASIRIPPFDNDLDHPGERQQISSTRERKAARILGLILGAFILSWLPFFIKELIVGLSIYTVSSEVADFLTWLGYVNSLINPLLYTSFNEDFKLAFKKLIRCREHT
Chain of Alpha-1B adrenergic receptor (Homo sapiens) (P35368 whole entry): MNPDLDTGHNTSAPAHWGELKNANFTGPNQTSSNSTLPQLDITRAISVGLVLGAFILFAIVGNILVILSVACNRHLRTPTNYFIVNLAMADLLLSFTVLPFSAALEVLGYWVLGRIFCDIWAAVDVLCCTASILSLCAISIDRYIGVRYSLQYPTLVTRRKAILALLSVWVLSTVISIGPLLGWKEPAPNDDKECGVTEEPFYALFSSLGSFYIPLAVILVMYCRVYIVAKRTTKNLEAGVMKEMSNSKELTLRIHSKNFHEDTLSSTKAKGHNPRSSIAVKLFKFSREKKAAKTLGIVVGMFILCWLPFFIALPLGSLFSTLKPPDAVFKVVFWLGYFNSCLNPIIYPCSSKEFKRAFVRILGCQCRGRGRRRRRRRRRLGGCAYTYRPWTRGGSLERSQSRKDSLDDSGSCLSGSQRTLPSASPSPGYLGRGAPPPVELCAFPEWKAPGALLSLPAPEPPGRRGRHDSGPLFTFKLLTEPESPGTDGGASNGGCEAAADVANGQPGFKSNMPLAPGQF
Chain of D(1B) dopamine receptor (Homo sapiens) (P21918 whole entry): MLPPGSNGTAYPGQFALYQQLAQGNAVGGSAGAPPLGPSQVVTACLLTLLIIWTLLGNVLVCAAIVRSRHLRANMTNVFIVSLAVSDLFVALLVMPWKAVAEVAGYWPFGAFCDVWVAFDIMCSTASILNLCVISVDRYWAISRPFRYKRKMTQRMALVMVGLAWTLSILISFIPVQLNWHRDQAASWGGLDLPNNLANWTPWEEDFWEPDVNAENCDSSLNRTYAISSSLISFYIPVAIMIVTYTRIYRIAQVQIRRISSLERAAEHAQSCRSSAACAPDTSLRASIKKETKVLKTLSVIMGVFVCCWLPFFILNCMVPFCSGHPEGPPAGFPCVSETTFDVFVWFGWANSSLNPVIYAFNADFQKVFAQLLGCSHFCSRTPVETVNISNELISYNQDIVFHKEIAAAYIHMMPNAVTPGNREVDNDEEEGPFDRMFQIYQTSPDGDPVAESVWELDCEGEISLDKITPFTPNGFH
Chain of Delta-type opioid receptor (P41143 whole entry): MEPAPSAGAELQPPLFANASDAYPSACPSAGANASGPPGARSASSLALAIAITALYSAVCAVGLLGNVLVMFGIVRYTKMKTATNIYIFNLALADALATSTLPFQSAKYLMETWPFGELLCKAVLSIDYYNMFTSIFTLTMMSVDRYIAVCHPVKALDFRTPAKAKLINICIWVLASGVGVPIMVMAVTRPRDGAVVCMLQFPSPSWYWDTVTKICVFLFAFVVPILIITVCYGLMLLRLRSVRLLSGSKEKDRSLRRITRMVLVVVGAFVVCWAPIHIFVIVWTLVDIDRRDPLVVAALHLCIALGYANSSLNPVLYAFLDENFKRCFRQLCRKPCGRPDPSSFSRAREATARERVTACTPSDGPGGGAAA
Chain of Sodium-dependent noradrenaline transporter (Homo sapiens) (P23975 whole entry): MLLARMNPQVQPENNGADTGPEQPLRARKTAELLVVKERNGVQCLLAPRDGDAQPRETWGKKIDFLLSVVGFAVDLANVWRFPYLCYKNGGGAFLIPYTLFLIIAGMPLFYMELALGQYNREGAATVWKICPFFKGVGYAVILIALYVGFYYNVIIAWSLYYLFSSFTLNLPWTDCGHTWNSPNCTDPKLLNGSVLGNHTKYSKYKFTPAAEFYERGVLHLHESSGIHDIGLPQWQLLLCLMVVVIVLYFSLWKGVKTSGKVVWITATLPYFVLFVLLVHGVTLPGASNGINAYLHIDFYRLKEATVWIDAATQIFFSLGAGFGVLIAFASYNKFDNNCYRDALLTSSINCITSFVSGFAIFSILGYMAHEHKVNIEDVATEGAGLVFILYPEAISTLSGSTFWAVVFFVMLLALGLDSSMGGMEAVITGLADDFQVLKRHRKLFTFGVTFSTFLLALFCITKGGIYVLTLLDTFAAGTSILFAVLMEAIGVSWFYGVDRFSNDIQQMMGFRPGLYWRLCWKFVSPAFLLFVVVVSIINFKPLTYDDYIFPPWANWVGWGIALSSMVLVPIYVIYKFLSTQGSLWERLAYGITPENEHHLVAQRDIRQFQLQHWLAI
Chain of Sigma intracellular receptor 2 (Homo sapiens) (Q5BJF2 whole entry): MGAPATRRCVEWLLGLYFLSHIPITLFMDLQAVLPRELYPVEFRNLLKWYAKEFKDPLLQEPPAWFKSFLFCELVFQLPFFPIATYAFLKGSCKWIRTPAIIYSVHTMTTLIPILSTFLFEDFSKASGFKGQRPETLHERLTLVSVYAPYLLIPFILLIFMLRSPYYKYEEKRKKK

`CNC(=N)NCCC[C@H](NC(=O)[C@H](CC(C)C)NC(=O)NNC(=O)[C@H](Cc1ccccc1)NC(=O)[C@H](CO)NC(=O)[C@H](CC(N)=O)NC(=O)[C@@H](Cc1ccncc1)NC(=O)[C@H](N)Cc1ccc(O)cc1)C(=O)N[C@@H](Cc1ccccc1)C(N)=O` [KISS1-305] (H-[dY][d4Pal]NSF[azaGly]L[Arg(Me)]F-NH2) gave an inhibition [1] of 29.3%, an inhibition [2] of 13.8% and an inhibition [3] of -4.62%. The inhibition [4] was 1.39%, the inhibition [5] was 3.72% and the inhibition [6] was 0.557%. For the same molecule, the inhibition [7] was 19.9%, the inhibition [8] was 8.84% and the inhibition [9] was 4.93%. It also gave an inhibition [10] of 10.4%, an inhibition [11] of 24.1% and an inhibition [12] of 5.4%. For the same molecule, the inhibition [13] was -9.06%, the inhibition [14] was -5.31% and the inhibition [15] was 7.09%. The inhibition [16] was -8.85%, the inhibition (Rattus norvegicus) was 31.4% and the inhibition [17] was 13.6%. The IC50 [18] was 8.94 nM (active), the inhibition [19] was 0.512% and the inhibition [20] was 12%. For the same molecule, the inhibition [21] was 43.3%, the inhibition [22] was 10.4% and the inhibition [23] was -7.65%. It also gave an inhibition [24] of 14.9%, an inhibition [25] of 25.1% and an inhibition [26] of 17.6%. It also gave an inhibition [27] of 13.9%, an inhibition [28] of 10.7% and an inhibition [29] of 2.17%. For the same molecule, the inhibition [30] was -7.58%, the inhibition [31] was 1.13% and the inhibition [32] was -6.31%. For the same molecule, the inhibition [33] was 4.19%, the inhibition [34] was 8.6% and the inhibition [35] was -2.33%. It also gave an inhibition [36] of 20.1%, an inhibition [37] of 4.38% and an inhibition [38] of 0.859%. The inhibition [39] was 18.5%, the inhibition [40] was 1.39% and the inhibition [41] was 12.8%. It also gave a Ki ([42]; read-out: Ki) of 47.5 nM and a Ki ([42]; read-out: pKi (converted)) of 44.7 nM.
With `CNC(=N)NCCC[C@H](NC(=O)[C@H](CC(C)C)NC(=O)NNC(=O)[C@H](Cc1ccccc1)NC(=O)[C@H](CO)NC(=O)[C@H](CC(N)=O)NC(=O)[C@@H](Cc1cccnc1)NC(=O)[C@H](N)Cc1ccc(O)cc1)C(=O)NCC(N)=O` [KISS1-543] (H-[dY][d3Pal]NSF[azaGly]L[Arg(Me)]G-NH2) the inhibition [1] was 31%, the inhibition [2] was 18.5% and the inhibition [3] was -7.85%. The inhibition [4] was -2.89%, the inhibition [5] was 0.205% and the inhibition [6] was 3.41%. The inhibition [8] was -0.408%, the inhibition [9] was -0.513% and the inhibition [10] was 12.4%. The inhibition [11] was 27.9%, the inhibition [12] was -1.33% and the inhibition [43] was -8.29%. The inhibition [14] was -8.74%, the inhibition [15] was 2.7% and the inhibition [16] was -3.9%. The inhibition (Rattus norvegicus) was 15.6%, the inhibition [17] was 12.3% and the inhibition [19] was 29.2%. It also gave an inhibition [20] of 10.4%, an inhibition [21] of 12.5% and an inhibition [22] of -3.39%. The inhibition [44] was 16.9%, the inhibition [23] was -2.08% and the inhibition [24] was 12.3%. For the same molecule, the EC50 (KiSS-1 receptor) was > 1000 nM (not active), the inhibition [25] was 40.7% and the inhibition [26] was 14.5%. The inhibition [27] was 9.13%, the inhibition [28] was 24.7% and the inhibition [29] was 15.1%. For the same molecule, the inhibition [30] was -0.599%, the inhibition [31] was 11.3% and the inhibition [32] was -5.75%. The inhibition [33] was -0.48%, the inhibition [34] was 10.2% and the inhibition [35] was -6.69%. For the same molecule, the inhibition [36] was 16.3%, the inhibition [37] was 3.31% and the inhibition [38] was 9.68%. It also gave an inhibition [45] of -9.83%, an inhibition [39] of 30.9% and an inhibition [40] of 15.5%. For the same molecule, the inhibition [41] was -2.67%.
